Measured values: ChEMBL document CHEMBL3217610, “SAR investigations on a novel class of gamma-secretase modulators based on a unique scaffold” (Medchemcomm, 2013)

Tests used:
[1] = biological target: Gamma-secretase; assay: Modulation of gamma-secretase (unknown origin) assessed as inhibition of amyloid beta 40 production; assay type: protein-complex assay, Homo sapiens
[2] = biological target: T1, Gamma-secretase (Homo sapiens) (UniProt Q96BI3+Q9NZ42+Q8WW43+P49768+Q92542+P49810); assay: Selectivity ratio of IC50 for modulation of gamma-secretase (unknown origin) assessed as inhibition of amyloid beta 40 production to IC50 for modulation of gamma-secretase (unknown origin) assessed as inhibition of amyloid beta 42 production; assay type: protein-complex assay
[3] = biological target: Gamma-secretase; assay: Modulation of gamma-secretase (unknown origin) assessed as inhibition of amyloid beta 42 production; assay type: protein-complex assay, Homo sapiens
[4] = biological target: T1, Gamma-secretase (Homo sapiens); assay: Modulation of gamma-secretase (unknown origin) assessed as inhibition of amyloid beta 40 production at 20 uM relative to control; assay type: protein-complex assay
[5] = biological target: T1, Gamma-secretase (Homo sapiens); assay: Modulation of gamma-secretase (unknown origin) assessed as inhibition of amyloid beta 40 production at 4 uM relative to control; assay type: protein-complex assay
[6] = biological target: Gamma-secretase; assay: Modulation of gamma-secretase (unknown origin) expressed in CHO cells assessed as inhibition of amyloid beta 42 production; assay type: cell-based, Homo sapiens
[7] = biological target: Gamma-secretase; assay: Modulation of gamma-secretase (unknown origin) expressed in CHO cells assessed as inhibition of amyloid beta 40 production; assay type: cell-based, Homo sapiens

SMILES | IC50 [1] | Ratio IC50 [2] | IC50 [3] | inhibition [4] | inhibition [5] | IC50 [6] | IC50 [7]
CC(=O)O[C@@H]([C@@H]1C[C@@H](C)[C@H]2[C@H](O1)[C@H](O)[C@@]1(C)[C@@H]3CC[C@H]4C(C)(C)[C@@H](OC(=O)NC5CN6CCC5CC6)CC[C@@]45C[C@@]35CC[C@]21C)C(C)(C)O (stereo partly specified) | 2400 nM | 29 | 84 nM | – | – | – | –
CC(=O)O[C@@H]([C@@H]1C[C@@H](C)[C@H]2[C@H](O1)C(=O)[C@@]1(C)[C@@H]3CC[C@H]4C(C)(C)[C@@H](O[C@@H]5OC[C@@H](O)[C@H](O)[C@H]5O)CC[C@@]45C[C@@]35CC[C@]21C)C(C)(C)O | 9800 nM | – | 600 nM | – | – | – | –
CC(=O)O[C@@H]([C@@H]1C[C@@H](C)[C@H]2[C@H](O1)[C@H](O)[C@@]1(C)[C@@H]3CC[C@H]4C(C)(C)[C@@H](OC(=O)NCc5ccccn5)CC[C@@]45C[C@@]35CC[C@]21C)C(C)(C)O | – | > 35 | 560 nM | 32% | – | – | –
CC(=O)O[C@@H]([C@@H]1C[C@@H](C)[C@H]2[C@H](O1)[C@H](O)[C@@]1(C)[C@@H]3CC[C@H]4C(C)(C)[C@@H](OC(=O)CN)CC[C@@]45C[C@@]35CC[C@]21C)C(C)(C)O | – | – | 95 nM | – | – | – | –
CC(=O)O[C@@H]([C@@H]1C[C@@H](C)[C@H]2[C@H](O1)[C@H](O)[C@@]1(C)[C@@H]3CC[C@H]4C(C)(C)[C@@H](OC(=O)NC5CNC5)CC[C@@]45C[C@@]35CC[C@]21C)C(C)(C)O | 330 nM | 7 | 47 nM | – | – | – | –
CC(=O)O[C@@H]([C@@H]1C[C@@H](C)[C@H]2[C@H](O1)[C@H](O)[C@@]1(C)[C@@H]3CC[C@H]4C(C)(C)[C@@H](OC(=O)NCCN)CC[C@@]45C[C@@]35CC[C@]21C)C(C)(C)O | 3000 nM | 33 | 91 nM | – | – | – | –
CC(=O)O[C@@H]([C@@H]1C[C@@H](C)[C@H]2[C@H](O1)[C@H](O)[C@@]1(C)[C@@H]3CC[C@H]4C(C)(C)[C@@H](OC(=O)NCCN5CCOCC5)CC[C@@]45C[C@@]35CC[C@]21C)C(C)(C)O | – | > 86 | 230 nM | 31% | – | – | –
CC(=O)OC(C)(C)[C@H]1O[C@@]23O[C@H]1C[C@@H](C)C2[C@@]1(C)CC[C@@]24C[C@@]25CC[C@H](O[C@@H]2OC[C@@H](O)[C@H](O)[C@H]2O)C(C)(C)[C@@H]5CC[C@H]4[C@]1(C)[C@H]3O (stereo partly specified) | – | – | 3000 nM | – | – | – | –
CC(=O)O[C@@H]([C@@H]1C[C@@H](C)[C@H]2[C@H](O1)[C@H](O)[C@@]1(C)[C@@H]3CC[C@H]4C(C)(C)[C@@H](OC(=O)N5CCOCC5)CC[C@@]45C[C@@]35CC[C@]21C)C(C)(C)O | 13600 nM | 62 | 220 nM | – | – | – | –
CC(=O)O[C@@H]([C@@H]1C[C@@H](C)[C@H]2[C@H](O1)[C@H](O)[C@@]1(C)[C@@H]3CC[C@H]4C(C)(C)[C@@H](OC(=O)C5CNC5)CC[C@@]45C[C@@]35CC[C@]21C)C(C)(C)O | 1300 nM | 24 | 55 nM | – | – | – | –
CC(=O)O[C@@H]([C@@H]1C[C@@H](C)[C@H]2[C@H](O1)[C@H](O)[C@@]1(C)[C@@H]3CC[C@H]4C(C)(C)[C@@H](O[C@@H]5OC[C@@H](O)[C@H](O)[C@H]5O)CC[C@@]45C[C@@]35CC[C@]21C)C(C)(C)O | 1000 nM | – | 60 nM | – | – | – | –
CC(=O)O[C@@H]([C@@H]1C[C@@H](C)[C@H]2[C@H](O1)[C@H](O)[C@@]1(C)[C@@H]3CC[C@H]4C(C)(C)[C@@H](OC(=O)c5ccccn5)CC[C@@]45C[C@@]35CC[C@]21C)C(C)(C)O | 13000 nM | 25 | 520 nM | – | – | – | –
CC(=O)O[C@@H]([C@@H]1C[C@@H](C)[C@H]2[C@H](O1)[C@H](O)[C@@]1(C)[C@@H]3CC[C@H]4C(C)(C)[C@@H](OC(=O)NCCN(C)C)CC[C@@]45C[C@@]35CC[C@]21C)C(C)(C)O | – | > 11 | 360 nM | – | 23% | – | –
C[C@@H]1C[C@@H]([C@H](O)C(C)(C)O)O[C@H]2[C@H]1[C@@]1(C)CC[C@@]34C[C@@]35CC[C@H](O[C@@H]3OC[C@@H](O)[C@H](O)[C@H]3O)C(C)(C)[C@@H]5CC[C@H]4[C@]1(C)[C@H]2O | – | – | 3100 nM | – | – | – | –
CC(=O)O[C@@H]([C@@H]1C[C@@H](C)[C@H]2[C@H](O1)[C@H](O)[C@@]1(C)[C@@H]3CC[C@H]4C(C)(C)[C@@H](OC(=O)NC5CCC5)CC[C@@]45C[C@@]35CC[C@]21C)C(C)(C)O | – | > 42 | 470 nM | 26% | – | – | –
CC(=O)O[C@@H]([C@@H]1C[C@@H](C)[C@H]2[C@H](O1)[C@H](O)[C@@]1(C)[C@@H]3CC[C@H]4C(C)(C)[C@@H](OC(=O)CCC(=O)O)CC[C@@]45C[C@@]35CC[C@]21C)C(C)(C)O | 18000 nM | 11 | 1600 nM | – | – | – | –

SMILES | IC50 [1] | Ratio IC50 [2] | IC50 [3] | inhibition [4] | inhibition [5] | IC50 [6] | IC50 [7]
CC(=O)O[C@@H]([C@@H]1C[C@@H](C)[C@H]2[C@H](O1)[C@H](O)[C@@]1(C)[C@@H]3CC[C@H]4C(C)(C)[C@@H](OC(=O)Cc5ccccn5)CC[C@@]45C[C@@]35CC[C@]21C)C(C)(C)O | 7200 nM | 9 | 780 nM | – | – | – | –
CC(=O)O[C@@H]([C@@H]1C[C@@H](C)[C@H]2[C@H](O1)[C@H](O)[C@@]1(C)[C@@H]3CC[C@H]4C(C)(C)[C@@H](OC(=O)NC5COC5)CC[C@@]45C[C@@]35CC[C@]21C)C(C)(C)O | – | > 44 | 450 nM | 40% | – | – | –
CC(=O)O[C@@H]([C@@H]1C[C@@H](C)[C@H]2[C@H](O1)[C@H](O)[C@@]1(C)[C@@H]3CC[C@H]4C(C)(C)[C@@H](OC(=O)c5ccncc5)CC[C@@]45C[C@@]35CC[C@]21C)C(C)(C)O | – | – | 1000 nM | – | – | – | –
CC(=O)O[C@@H]([C@@H]1C[C@@H](C)[C@H]2[C@H](O1)[C@H](O)[C@@]1(C)[C@@H]3CC[C@H]4C(C)(C)[C@@H](O)CC[C@@]45C[C@@]35CC[C@]21C)C(C)(C)O | 14000 nM | – | 600 nM | – | – | – | –
CC(=O)O[C@@H]([C@@H]1C[C@@H](C)[C@H]2[C@H](O1)[C@H](O)[C@@]1(C)[C@@H]3CC[C@H]4C(C)(C)[C@@H](OC(N)=O)CC[C@@]45C[C@@]35CC[C@]21C)C(C)(C)O | – | > 100 | 200 nM | 27% | – | – | –
CC(=O)O[C@@H]([C@@H]1C[C@@H](C)[C@H]2[C@H](O1)[C@H](O)[C@@]1(C)[C@@H]3CC[C@H]4C(C)(C)[C@@H](OC(=O)CN(C)C)CC[C@@]45C[C@@]35CC[C@]21C)C(C)(C)O | 8400 nM | 15 | 570 nM | – | – | – | –
CC(=O)O[C@@H]([C@@H]1C[C@@H](C)C2=C(O1)[C@H](O)[C@@]1(C)[C@@H]3CC[C@H]4C(C)(C)[C@@H](O[C@@H]5OC[C@@H](O)[C@H](O)[C@H]5O)CC[C@@]45C[C@@]35CC[C@]21C)C(C)(C)O | 2700 nM | – | 100 nM | – | – | 100 nM | 6300 nM
CC(=O)O[C@@H]([C@@H]1C[C@@H](C)[C@H]2[C@H](O1)[C@H](O)[C@@]1(C)[C@@H]3CC[C@H]4C(C)(C)[C@@H](OC(=O)C5CCN5)CC[C@@]45C[C@@]35CC[C@]21C)C(C)(C)O (mixture of isomers) | – | – | 220 nM | – | – | – | –
CC(=O)O[C@@H]([C@@H]1C[C@@H](C)[C@H]2[C@H](O1)[C@H](O)[C@@]1(C)[C@@H]3CC[C@H]4C(C)(C)[C@@H](OC(=O)N5CCC5)CC[C@@]45C[C@@]35CC[C@]21C)C(C)(C)O | 14700 nM | 43 | 340 nM | – | – | – | –
CC(=O)O[C@@H]([C@@H]1C[C@@H](C)[C@H]2[C@H](O1)[C@H](O)[C@@]1(C)[C@@H]3CC[C@H]4C(C)(C)[C@@H](OC(=O)NCC(=O)O)CC[C@@]45C[C@@]35CC[C@]21C)C(C)(C)O | – | > 8 | 2500 nM | 37% | – | – | –
CC(=O)O[C@@H]([C@@H]1C[C@@H](C)[C@H]2[C@H](O1)[C@H](O)[C@@]1(C)[C@@H]3CC[C@H]4C(C)(C)[C@@H](OC(=O)[C@@H]5CCCN5)CC[C@@]45C[C@@]35CC[C@]21C)C(C)(C)O | 4600 nM | 20 | 230 nM | – | – | – | –
CC(=O)O[C@H]1CC[C@]23C[C@]24CC[C@]2(C)[C@@H]5[C@H](O[C@H]([C@H](OC(C)=O)C(C)(C)O)C[C@H]5C)[C@H](O)[C@@]2(C)[C@@H]4CC[C@H]3C1(C)C | 12000 nM | 16 | 760 nM | – | – | – | –
CC(=O)O[C@@H]([C@@H]1C[C@@H](C)[C@H]2[C@H](O1)[C@H](O)[C@@]1(C)[C@@H]3CC[C@H]4C(C)(C)[C@@H](OC(=O)C5CCCO5)CC[C@@]45C[C@@]35CC[C@]21C)C(C)(C)O (mixture of isomers) | – | > 23 | 860 nM | 44% | – | – | –
CC(=O)O[C@@H]([C@@H]1C[C@@H](C)[C@H]2[C@H](O1)[C@H](O)[C@@]1(C)[C@@H]3CC[C@H]4C(C)(C)[C@@H](OC(=O)C5(C)COC5)CC[C@@]45C[C@@]35CC[C@]21C)C(C)(C)O | – | > 33 | 590 nM | 41% | – | – | –
CC(=O)O[C@@H]([C@@H]1C[C@@H](C)[C@H]2[C@H](O1)[C@H](O)[C@@]1(C)[C@@H]3CC[C@H]4C(C)(C)[C@@H](OC(=O)c5cccnc5)CC[C@@]45C[C@@]35CC[C@]21C)C(C)(C)O | 14000 nM | 54 | 260 nM | – | – | – | –
